# Experimental data taken from US9289411B2, “Anti-HCV agent” (NATIONAL UNIVERSITY CORPORATION OKAYAMA UNIVERSITY, priority 2011, dated 2016).
# Several values for one entry are separate records, joined by “and”; a condition that tells them apart may be missing. Equal values may be shown once.
# Columns and labels:
# [1] = Cytotoxic effect, WST-1 cell proliferation assay in ORL8 cells; details: human
# From the text: (§1) Assay systems using OR6 cells (HCV-O strain), 1B-4R cells (HCV-1B-4 strain), and AH1R cells (HCV-AH1R strain) as HuH-7 cell-derived full-length HCV-RNA-replicating cells, and ORL8 cells (HCV-O strain), ORL11 cells (HCV-O strain), 1B-4RL cells (HCV-1B-4 strain), and KAH5RL cells (HCV-KAH5 strain) as Li23 cell-derived full-length HCV-RNA-replicating cells were used for the quantitative analysis of anti-HCV activity and evaluation of a cytotoxic effect in the present invention. The three cell lines, i.e., the 1B-4R cells, the 1B-4RL cells, and the KAH5RL cells have been disclosed in WO 2010/026965 A1. The AH1R cells may be produced with reference to Mori K et al., BBRC, 371:104-109, 2008 and WO 2010/026965 A1. In addition, all the HCV strains belong to genotype 1b.
# (§2) In the measurement of the renilla luciferase activity and the measurement by the WST-1 method, experiments were performed in three wells independent of each other, and their means and standard deviation were calculated.
# The cytotoxic effects of N-89 and N-251 were examined using ORL8 cells and the CC50 values were calculated. An experimental scale and schedule are the same as those in Example 1.
# N-89 and N-251 were added so as to achieve concentrations of 5 μM, a 2-fold dilution series from 5 μM (2.5, 1.3, 0.63, 0.31, 0.16, and 0.08 μM), and 0. The WST-1 cell proliferation assay was performed 72 hours after the culture.
# The cytotoxic effect of artemisinin was examined using OR6 and ORL8 cells and the CC50 values were calculated. An experimental scale and schedule are the same as those in Example 1. Artemisinin was added so as to achieve concentrations of 400 μM, a 2-fold dilution series from 400 μM (200, 100, 50, 25, and 13 μM), and 0. The WST-1 cell proliferation assay was performed 72 hours after the culture.
# [2] = tested on: HCV-RNA replication in ORL8 cells; assay: Influence of oxidizing agents KNO3 and NaClO4 on anti-HCV activity in ORL8 cells; type: cell-based, HCV genotype 1b; details: 10 μM, 72 hours
# Procedure: The effects of addition of KNO3 and NaClO4 on the anti-HCV activity of N-89 were examined using ORL8 cells.
# N-89 and KNO3 or NaClO4 were simultaneously added so that the concentrations of N-89 and KNO3 or NaClO4 were set to 0.5 μM and 10 μM, respectively. The luciferase activity was measured 72 hours after the culture.
# [3] = Cytotoxic effect, WST-1 cell proliferation assay in OR6 cells; details: human
# From the text: as §1, §2
# After 24 hours, N-89 was added so as to achieve concentrations of 20 μM, a 2-fold dilution series from 20 μM (10, 5, 2.5, 1.3, 0.63, and 0.31 μM), and 0, or N-251 was added so as to achieve concentrations of 10 μM, a 2-fold dilution series from 10 μM (5, 2.5, 1.3, 0.63, 0.31, and 0.16 μM), and 0.
# The cytotoxic effect of artemisinin was examined using OR6 and ORL8 cells and the CC50 values were calculated. […]
# [4] = tested on: HCV-RNA replication in ORL8 cells (HCV-O strain, Li23-derived); assay: microbe, parasite or virus in culture
# From the text: as §1
# (§3) As necessary, an increase or decrease in expression level of an HCV protein (core protein) was examined by a Western blot method.
# as §2
# The anti-HCV activities of N-89 and N-251 were examined using ORL8 cells and the EC50 values were calculated. An experimental scale and schedule are the same as those in Example 1.
# N-89 and N-251 were added so as to achieve concentrations of 5 μM, a 2-fold dilution series from 5 μM (2.5, 1.3, 0.63, 0.31, 0.16, and 0.08 μM), and 0. The luciferase activities were measured 72 hours after the culture.
# (§4) The anti-HCV activity of artemisinin was examined using OR6 cells and ORL8 cells and the EC50 values were calculated. An experimental scale and schedule are the same as those in Example 1.
# (§5) Artemisinin was added so as to achieve concentrations of 100 μM, a 2-fold dilution series from 100 μM (50, 25, 13, 6.3, 3.1, and 1.6 μM), and 0. The luciferase activities were measured 72 hours after the culture.
# [5] = tested on: HuH-7-derived HCV-replicon-replicating cells; details: Paeshuyse J et al., BBRC 2006; cited from earlier work
# [6] = tested on: HCV-RNA replication in ORL8 cells; assay: Effect of antioxidant vitamin E on anti-HCV activity in ORL8 cells (luciferase activity); type: cell-based, HCV genotype 1b; details: for canceling of the anti-HCV activity by vitamin E: vitamin E 10 μM
# Procedure: The effect of addition of vitamin E on the anti-HCV activity of N-89 was examined using ORL8 cells. An experimental scale and schedule are the same as those in Example 1.
# N-89 and vitamin E were simultaneously added so that the concentrations of N-89 and vitamin E were set to 0.5 μM and 10 μM, respectively. The luciferase activity was measured 72 hours after the culture.
# The effect of addition of vitamin E on the anti-HCV activity of N-251 was examined using ORL8 cells. An experimental scale and schedule are the same as those in Example 1.
# N-251 and vitamin E were simultaneously added so that the concentrations of N-251 and vitamin E were set to 0.5 μM and 10 μM, respectively. The luciferase activity was measured 72 hours after the culture.
# The effect of addition of vitamin E on the anti-HCV activity of artemisinin was examined using ORL8 cells. An experimental scale and schedule are the same as those in Example 1.
# Artemisinin and vitamin E were simultaneously added so that the concentrations of artemisinin and vitamin E were set to 100 μM and 10 μM, respectively. The luciferase activity was measured 72 hours after the culture.
# [7] = tested on: HCV-RNA replication in OR6 cells (HCV-O strain, HuH-7-derived); assay: microbe, parasite or virus in culture
# From the text: as §1, §3, §2
# OR6 cells, which had been cultured in general medium for subculture, were plated onto a 24-well plate (2×10^4 cells in 1 mL of medium for […] cell line per well) and cultured. After 24 hours, N-89 was added so as to achieve concentrations of 20 μM, a 2-fold dilution series from 20 μM (10, 5, 2.5, 1.3, 0.63, and 0.31 μM), and 0, or N-251 was added so as to achieve concentrations of 10 μM, a 2-fold dilution series from 10 μM (5, 2.5, 1.3, 0.63, 0.31, and 0.16 μM), and 0. The renilla luciferase activities were measured 72 hours after the culture. N-89 and N-251 were diluted with DMSO.
# as §4, §5
compound,measurement,setting,value
"CC(C)n1c(/C=C/C(O)CC(O)CC(=O)O)c(-c2ccc(F)cc2)c2ccccc21 (centres unmarked) [FLV, Fluvastatin, reference compound]",CC50 at 72 h,[1],21 µM
O=[N+]([O-])[O-].[K+] [KNO3],"change in luciferase activity, oxidizing agent alone",[2],no change
[Na+].[O-][Cl+3]([O-])([O-])[O-] [NaClO4],"change in luciferase activity, oxidizing agent alone",[2],no change
"C[C@@H]1CC[C@H]2[C@@H](C)C(=O)O[C@@H]3O[C@@]4(C)CC[C@@H]1[C@]32OO4 [artemisinin, reference compound]",CC50 at 72 h,[1],368 µM
same,CC50 at 72 h,[3],380 µM
same,EC50,"[4]; Hepatitis C virus, ORL8, 72 h",23 µM
same,SI (CC50/EC50),[4]; ORL8 cells,16
same,anti-HCV activity,[5],weak
same,"luciferase activity, artemisinin in combination with vitamin E","[6]; 100 μM + vitamin E 10 μM, 72 hours",53%
same,"luciferase activity, artemisinin alone","[6]; 100 μM, 72 hours",23%
same,canceling of the anti-HCV activity by vitamin E,[6],not canceled
same,EC50,"[7]; Hepatitis C virus, OR6, 72 h",81 µM
same,anti-HCV activity (judgement),[7]; OR6 and ORL8 cells,very weak anti-HCV activity
same,SI (CC50/EC50),[7]; OR6 cells,5
IFN-α,canceling of the anti-HCV activity by vitamin E,[6],slightly found
vitamin E [reference compound],"luciferase activity, vitamin E alone","[6]; vitamin E 10 μM alone, 72 hours",217% and 194%
same,"increase of luciferase activity, vitamin E alone","[6]; vitamin E 10 μM alone, 72 hours (Comparative Example 2)",about 3 fold
